This passage reports IC50, A2 peptide and A2 native results from US20040037843A1, “Inducing cellular immune responses to prostate cancer antigens using peptide and nucleic acid compositions” (priority 2003, published 2004).

The structures appear in SMILES notation. Like-named read-outs stand apart in the source and are kept apart here.

The target in one experiment is HLA-A*0203 (Homo sapiens, UniProt P04439, A173T/D140Y/D185E/D98H/E277Q/G131W/G231S/I119V/I121R/I166T/I218V/L180W/L300P/L318F/N151K/N90K/P208A/P217A/Q86G/Q94H/R138H/R169H/T345S). Nature of the experiment: HLA class I binding assay, purified HLA, inhibition of 125I-labelled probe peptide.
For the next experiment, the target named is HLA-A*6802 (Homo sapiens, UniProt P04439, A269V/D140Y/D185E/E176V/E277Q/E87N/F33Y/G231S/I121R/I166T/I218V/L180W/L300P/L318F/N151K/P208A/P217A/Q86R/R138H/R169H/S129P/T345S/V36M). The description is as above.
A further experiment addresses HLA-A*0206 (Homo sapiens, UniProt P04439, D140Y/D185E/D98H/E176V/E277Q/F33Y/G131W/G231S/I119V/I121R/I166T/I218V/L300P/L318F/N151K/N90K/P208A/P217A/Q86G/Q94H/R138H/R169H/T345S). Described as above.
A further experiment concerns the target HLA-A*0201 (Homo sapiens, UniProt P04439, D140Y/D185E/D98H/E176V/E277Q/G131W/G231S/I119V/I121R/I166T/I218V/L300P/L318F/N151K/N90K/P208A/P217A/Q86G/Q94H/R138H/R169H/T345S). Described as above. To be noted: A*[…], A2 supermotif cross-reactive binding data.
The subject of experiment [1] is .221A2.1 peptide-loaded target cells and cells expressing endogenous antigen. Put plainly: Primary in vitro CTL induction with peptide-pulsed DC, CTL lytic activity by 51Cr release. To be noted: immunogenicity, positive/tested; for A2 peptide: CTL recognition of the peptide; for A2 native: CTL recognition of native (wild-type) target. Format: cell-based, human. On the procedure:
Testing was performed using the following methodology:
Cells that express an antigen of interest, or transfectants comprising the gene encoding the antigen of interest, can be used as target cells to test the ability of peptide-specific CTLs to recognize endogenous antigen.
The monocytes are purified by plating 10×10^6 PBMC/well in a 6-well plate. After 2 hours at 37° C., the non-adherent cells are removed by gently shaking the plates and aspirating the supernatants. The wells are washed a total of three times with 3 ml RPMI to remove most of the non-adherent and loosely adherent cells. Three ml of complete medium containing 50 ng/ml of GM-CSF and 1,000 U/ml of IL-4 are then added to each well. TNFα is added to the DCs on day 6 at 75 ng/ml and the cells are used for CTL induction cultures on day 7.
Induction of CTL with DC and Peptide: CD8+ T-cells are isolated by positive selection with Dynal imnmunomagnetic beads (Dynabeads® M-450) and the detacha-bead® reagent. Typically about 200-250×10^6 PBMC are processed to obtain 24×10^6 CD8^+T-cells (enough for a 48-well plate culture). Briefly, the PBMCs are thawed in RPMI with 30 μg/ml DNAse, washed once with PBS containing 1% human AB serum and resuspended in PBS/1% AB serum at a concentration of 20×10^6 cells/ml. The magnetic beads are washed 3 times with PBS/AB serum, added to the cells (140 μl beads/20×10^6 cells) and incubated for 1 hour at 4° C. with continuous mixing. The beads and cells are washed 4× with PBS/AB serum to remove the nonadherent cells and resuspended at 100×10^6 cells/ml (based on the original cell number) in PBS/AB serum containing 100 μl/ml detacha-bead® reagent and 30 μg/ml DNAse. The mixture is incubated for 1 hour at room temperature with continuous mixing. The beads are washed again with PBS/AB/DNAse to collect the CD8+ T-cells. The DC are collected and centrifuged at 1300 rpm for 5-7 minutes, washed once with PBS with 1% BSA, counted and pulsed with 40 μg/ml of peptide at a cell concentration of 1-2×10^6/ml in the presence of 3 μg/ml β2-microglobulin for 4 hours at 20° C. The DC are then irradiated (4,200 rads), washed 1 time with medium and counted again.
Setting up induction cultures: 0.25 ml cytokine-generated DC (@1×10^5 cells/ml) are co-cultured with 0.25 ml of CD8+ T-cells (@2×10^6 cell/ml) in each well of a 48-well plate in the presence of 10 ng/ml of IL-7. Recombinant human IL10 is added the next day at a final concentration of 10 ng/ml and rhuman IL2 is added 48 hours later at 10 IU/mL.
Restimulation of the induction cultures with peptide-pulsed adherent cells: Seven and fourteen days after the primary induction the cells are restimulated with peptide-pulsed adherent cells. The PBMCS are thawed and washed twice with RPMI and DNAse. The cells are resuspended at 5×10^6 cells/ml and irradiated at ˜4200 rads. The PBMCs are plated at 2×10^6 in 0.5 ml complete medium per well and incubated for 2 hours at 37° C. The plates are washed twice with RPMI by tapping the plate gently to remove the nonadherent cells and the adherent cells pulsed with 10 μg/ml of peptide in the presence of 3 μg/ml β2 microglobulin in 0.25 ml RPMI/5% AB per well for 2 hours at 37° C. Peptide solution from each well is aspirated and the wells are washed once with RPMI. Most of the media is aspirated from the induction cultures (CD8+ cells) and brought to 0.5 ml with fresh media. The cells are then transferred to the wells containing the peptide-pulsed adherent cells. Twenty four hours later rhuman IL10 is added at a final concentration of 10 ng/ml and rhuman IL2 is added the next day and again 2-3 days later at 50 IU/ml (Tsai et al., Critical Reviews in Immunology 18(1-2):65-75, 1998). Seven days later the cultures are assayed for CTL activity in a ^51Cr release assay. In some experiments the cultures are assayed for peptide-specific recognition in the in situ IFNγ ELISA at the time of the second restimulation followed by assay of endogenous recognition 7 days later. […]

[2] abbreviates: A*[…], A2 supermotif cross-reactive binding data.
The mark [3] stands for this setting: A2 supermotif cross-reactive binding data, read-out: A*6802 nM.

Regarding `CSCC[C@H](NC(=O)[C@H](C)NC(=O)[C@H](CO)NC(=O)[C@H](CCSC)NC(=O)[C@H](CC(C)C)NC(=O)[C@@H](N)[C@@H](C)O)C(=O)N[C@H](C(=O)N[C@@H](CC(N)=O)C(=O)N[C@@H](CC(C)C)C(=O)N[C@@H](C)C(=O)O)[C@@H](C)O` [Peptide 20.0312], the figures for the IC50 at HLA-A*0203, at HLA-A*6802 and on HLA-A*0206 were 37 nM, 6670 nM and 3700 nM, respectively.
With `CC[C@H](C)[C@H](N)C(=O)N[C@H](C(=O)N[C@@H](CC(C)C)C(=O)N[C@@H](CO)C(=O)N[C@H](C(=O)NCC(=O)N[C@@H](CS)C(=O)N[C@H](C(=O)NCC(=O)N[C@@H](C)C(=O)N[C@H](C(=O)O)C(C)C)[C@@H](C)O)C(C)C)[C@@H](C)O` [Peptide 1418.59], the IC50 at HLA-A*0203 (setting [2]) came out at 40 nM; on HLA-A*0201 it was 294 nM; on HLA-A*0206 (setting [2]) it was 206 nM.
On to `CSCC[C@H](NC(=O)[C@@H](N)Cc1ccccc1)C(=O)N[C@@H](CC(C)C)C(=O)N[C@@H](CS)C(=O)N[C@@H](C)C(=O)NCC(=O)N[C@@H](CC(C)C)C(=O)N[C@@H](Cc1c[nH]c2ccccc12)C(=O)N[C@H](C(=O)O)C(C)C` [Peptide 1418.22], for which the IC50 at HLA-A*0203 (setting [2]) is 91 nM; at HLA-A*6802 (setting [3]), more than 10000 nM; on HLA-A*0206 (setting [2]) it was 51 nM.
Turning to `CC(C)C[C@H](NC(=O)[C@H](CO)NC(=O)[C@@H](NC(=O)[C@H](CS)NC(=O)[C@H](CCC(N)=O)NC(=O)[C@H](CC(C)C)NC(=O)[C@@H](N)CO)C(C)C)C(=O)N[C@@H](Cc1c[nH]cn1)C(=O)N[C@H](C(=O)O)C(C)C` [Peptide 1418.19], the IC50 came out at 48 nM on HLA-A*0203 (setting [2]), 56 nM at HLA-A*0201 and 4110 nM at HLA-A*0206 (setting [2]).
For the compound `CC(C)C[C@H](NC(=O)[C@H](CCCCN)NC(=O)[C@H](CCCCN)NC(=O)[C@@H]1CCCN1C(=O)[C@@H](NC(=O)[C@H](CC(C)C)NC(=O)[C@@H](N)Cc1ccccc1)[C@@H](C)O)C(=O)N[C@@H](CCC(N)=O)C(=O)N[C@@H](CS)C(=O)N[C@H](C(=O)O)C(C)C` [Peptide 1098.02], the A2 peptide in experiment [1] was 3/4.
For `CSCC[C@H](N)C(=O)N[C@@H](CC(C)C)C(=O)N[C@@H](CC(C)C)C(=O)N[C@@H](CCCNC(=N)N)C(=O)N[C@@H](CC(C)C)C(=O)N[C@@H](CO)C(=O)N[C@@H](CCC(=O)O)C(=O)N1CCC[C@H]1C(=O)N[C@@H](C)C(=O)N[C@@H](CCC(=O)O)C(=O)N[C@H](C(=O)O)C(C)C` [Peptide 1389.12], the IC50 on HLA-A*0203 (setting [2]) worked out at 115 nM; at HLA-A*6802 (setting [3]), 4440 nM; at HLA-A*0201 it was 294 nM.
In the case of `CC[C@H](C)[C@H](N)C(=O)N[C@@H](CCSC)C(=O)N[C@@H](Cc1ccc(O)cc1)C(=O)N[C@@H](CO)C(=O)N[C@@H](C)C(=O)N[C@@H](Cc1c[nH]cn1)C(=O)N[C@@H](CC(=O)O)C(=O)N[C@H](C(=O)N[C@H](C(=O)N[C@H](C(=O)O)C(C)C)[C@@H](C)O)[C@@H](C)O` [Peptide 1097.05], the A2 peptide in experiment [1] is 3/3.
As to `CC[C@H](C)[C@H](NC(=O)[C@H](Cc1c[nH]c2ccccc12)NC(=O)[C@@H](NC(=O)[C@@H](NC(=O)[C@H](CO)NC(=O)[C@H](CC(C)C)NC(=O)[C@@H](NC(=O)[C@H](CC(C)C)NC(=O)[C@@H](N)Cc1ccccc1)[C@@H](C)O)C(C)C)[C@@H](C)O)C(=O)NCC(=O)N[C@H](C(=O)O)C(C)C` [Peptide 1419.27], in experiment [1], the A2 native is 3/3 and the A2 peptide is 3/3.
As to `CSCC[C@H](NC(=O)[C@H](CC(=O)O)NC(=O)[C@H](CC(N)=O)NC(=O)[C@H](CO)NC(=O)[C@H](CC(C)C)NC(=O)[C@H](CC(C)C)NC(=O)[C@H](Cc1c[nH]cn1)NC(=O)[C@H](CC(C)C)NC(=O)[C@@H](N)CO)C(=O)N[C@@H](CS)C(=O)N[C@@H](C)C(=O)O` [Peptide 1419.14], the A2 peptide in experiment [1] is given as 1/3.
With `CC(C)C[C@H](NC(=O)[C@H](C)N)C(=O)N[C@@H](Cc1ccccc1)C(=O)N1CCC[C@H]1C(=O)N1CCC[C@H]1C(=O)N[C@@H](CCC(=O)O)C(=O)NCC(=O)N[C@H](C(=O)N[C@@H](CO)C(=O)N[C@H](C(=O)O)C(C)C)C(C)C` [Peptide 1419.61], in experiment [1], the A2 native is given as 1/3 and the A2 peptide is 1/3.
Turning to `CC(C)C[C@H](NC(=O)[C@H](CC(C)C)NC(=O)[C@H](Cc1ccccc1)NC(=O)[C@H](Cc1ccccc1)NC(=O)CNC(=O)CNC(=O)[C@H](C)NC(=O)[C@H](CC(C)C)NC(=O)[C@@H](N)C(C)C)C(=O)O` [Peptide 1126.10], the A2 peptide in experiment [1] is recorded as 1/2.
As for `CC(C)C[C@H](NC(=O)[C@H](Cc1c[nH]c2ccccc12)NC(=O)[C@H](Cc1ccccc1)NC(=O)[C@H](Cc1ccccc1)NC(=O)[C@@H](NC(=O)[C@@H](N)CC(C)C)[C@@H](C)O)C(=O)N[C@@H](CC(=O)O)C(=O)N[C@@H](CCCNC(=N)N)C(=O)N[C@@H](CO)C(=O)N[C@H](C(=O)O)C(C)C` [Peptide 1418.23], in experiment [1], the A2 native is 2/3 and the A2 peptide was 3/3.
Take `CC(C)C[C@H](NC(=O)[C@H](CC(C)C)NC(=O)CNC(=O)[C@H](CC(N)=O)NC(=O)[C@H](Cc1ccc(O)cc1)NC(=O)[C@@H](NC(=O)[C@H](CC(=O)O)NC(=O)[C@H](CC(C)C)NC(=O)[C@H](C)N)C(C)C)C(=O)O` [Peptide 1177.02]: the IC50 is 256 nM at HLA-A*0203, more than 10000 nM on HLA-A*6802 (setting [3]) and 73 nM on HLA-A*0201.
On to `CC(C)C[C@H](NC(=O)[C@H](CO)NC(=O)[C@H](CCCNC(=N)N)NC(=O)[C@@H]1CCCN1C(=O)[C@H](CCCNC(=N)N)NC(=O)[C@H](CC(C)C)NC(=O)[C@@H](N)Cc1ccccc1)C(=O)N[C@@H](CCC(N)=O)C(=O)N[C@@H](CS)C(=O)N[C@H](C(=O)O)C(C)C` [Peptide 1419.07], for which the A2 peptide in experiment [1] is on record as 1/3.
Turning to `CSCC[C@H](N)C(=O)N[C@@H](CC(C)C)C(=O)N[C@@H](CC(C)C)C(=O)N[C@@H](CCCNC(=N)N)C(=O)N[C@@H](CC(C)C)C(=O)N[C@@H](CO)C(=O)N[C@@H](CCC(=O)O)C(=O)N1CCC[C@H]1C(=O)N[C@H](C(=O)O)C(C)C` [Peptide 1389.10], in experiment [1], the A2 native is listed as 1/3 and the A2 peptide was 3/3.
